Read-outs that look alike come from different tables or passages of the source.
Assays:
Salmonella enterica LT2 = test: Antibacterial bioassay (MIC), Salmonella enterica; type: cell-based; settings: CLSI
Description: (§1) Antibacterial bioassays. Susceptibility testing for the ESKAPE pathogens and Salmonella enterica LT2 was performed using a Kirby-Bauer method as outlined by the Clinical and Laboratory Standards Institute (CLSI). For rich media bioassays, Mueller Hinton Broth 2 (MH-2, Sigma-Aldrich, 90922) was used for all strains except 1% BHI was supplemented for Enterococcus faecalis ATCC 19433. For minimal media bioassays, glucose-MOPS minimal medium was used. Briefly, overnight bacterial cultures were sub-cultured and inoculated into 5 mL top agar (0.7% agar) for final concentration of 5×10^5 CFU/mL. Then, 20 μL of a compound 2-fold dilution series (200, 100, 50, 25, 12.5, 6.25 μM in water) was spotted on 6 mm diameter blank paper discs (BD BBL™ 231039). Control discs received 20 μL of 50 mg/mL kanamycin. Plates were incubated at 35° C. for 20-24 hours. […] Sensitivity of the IPTG-inducible phosphonate uptake strain WM6242 to pantaphos was tested using a disk diffusion assay. Plates containing growth medium were overlayed with 5 mL of top agar (0.7% agar) inoculated with 100 μL (OD600=0.8) of the phosphonate-specific E. coli indicator strain (WM6242) with or without addition of 1 mM IPTG. WM6242 is engineered with an IPTG-inducible, non-specific phosphonate uptake system (phnCDE). […]

human cell lines = test: Cytotoxicity profiling against a panel of human cell lines; type: cell-based; settings: human cell lines of Table 2, with the exception of ES-2; read-out: IC50 levels, range for each of the cell lines tested
Description: (§2) Cell culture cytotoxicity screening. The compounds were evaluated for their ability to kill cancer cell lines in culture, using HOS (osteosarcoma); ES-2 (ovarian cancer); HCT 116 (colon cancer); A549 (lung carcinoma); and A172 (glioma) cells. Human skin fibroblast cells (HFF-1) were also assessed. Cells were seeded (3000 cells well^−1 for ES-2, HCT 116, A549 and A172; 4000 cells well^−1 for HFF-1 and 2500 cells well^−1 for HOS) in a 96-well plate and allowed to attach overnight. Cells were treated with pantaphos in water. The concentrations of the tested compounds were 5 nM to 100 μM (1% water final; 100 μl well^−1). Raptinal (50 μM) was used as a dead control. On each plate, five technical replicates per compound were performed. 72 hours post-treatment, cell viability was assessed using the Alamar Blue method (http://www.bio-rad-antibodies.com/measuring-cytotoxicity-proliferation-spectrophotometry-fluorescence-alamarBlue.html). Alamar Blue solution (10 μl of 440 μM resazurin in sterile 1×PBS) was added to each well, and the plate was incubated for 3-4 hrs. Conversion of Alamar Blue was measured with a plate reader (SpectraMax M3; Molecular Devices) by fluorescence (excitation wavelength: 555 nm; emission wavelength: 585 nm; cutoff 570 nm; autogain). Percentage death was determined by normalizing to water-treated cells and Raptinal-treated cells. […]

onion bulbs = test: Onion bioactivity assay (center rot); type: in vivo, Allium cepa (onion); settings: 30° C.
Description: Onion bioactivity assays. Yellow onions purchased from a local market were surface sterilized in a laminar flow biosafety hood as follows. First, the outermost layers with any damage or browning were removed and discarded, followed by soaking for 10 minutes in 10% bleach. The onions were then rinsed three times with sterile dH2O, followed by soaking in 70% EtOH for an additional 10 minutes, then rinsed four times with sterile dH2O. The onions were left in a biosafety laminar flow hood until water and ethanol were completely evaporated. For testing virulence of microbial strains, the onions were inoculated by stabbing with a previously sterilized wooden toothpick dipped into a bacterial cell suspension (1×10^3 CFU/mL in 1×PBS buffer). Chemical complementation studies were performed by addition of 100 μL of filter-sterilized sample into the hole created by the toothpick during inoculation. For testing bioactivity of crude and purified chemical samples in the absence of bacteria, holes were punched in sterilized onions using sterile toothpicks followed by addition of 100 μL of a filter-sterilized sample. Following inoculation and/or treatment with filter-sterilized compounds, the onions were placed in zip-lock plastic bags and incubated at 30° C. in the dark for the indicated number of days. […]

MCF-7 (breast cancer) = test: Cytotoxicity profiling (Alamar Blue), MCF-7; type: cell-based, human
Description: (§3) FIG. 8. Cytotoxicity of pantaphos across various cancer cell lines. Assays were conducted as described (mBio. 2021 Feb. 2; 12(1):e03402-20), using the Alamar Blue method with 72-hour treatment using Raptinal ([…]) as Dead cell control; n=3. Cell seeding densities: CT26 (colon carcinoma) 2000 c/w; HOS (osteosarcoma) 2500 c/w; ES-2 (ovarian carcinoma), HCT-116 (colorectal carcinoma), A-549 (lung carcinoma), A-172 (glioblastoma), D54 (glioblastoma), U87 (glioblastoma), T98G (glioblastoma), SK-ML-28 (melanoma), MCF-7 (breast cancer), AM38 (glioblastoma) and MDA-MB-231 (breast cancer) 3000 c/w; U118MG (malignant glioma) 4000 c/w; HepG2 (liver cancer) 8000 c/w. c/w=cells per well. IC50 and Emax values shown in Table 6 were extracted from the raw data plotted in FIG. 8.
as §2, with “Alamar Blue solution (10 μl of 440 μM resazurin in sterile 1×PBS) was added to each well, and the plate was incubated for 3-4 hrs.” left out

HOS (human osteosarcoma) = test: Cell culture cytotoxicity screening (Alamar Blue), HOS; type: cell-based; settings: 72 hours
Description: as §3, with “IC50 and Emax values shown in Table 6 were extracted from the raw data plotted in FIG. 8.” left out
(§4) Cell culture cytotoxicity screening. The compounds were evaluated for their ability to kill cancer cell lines in culture, using HOS (osteosarcoma); ES-2 (ovarian cancer); HCT 116 (colon cancer); A549 (lung carcinoma); and A172 (glioma) cells. Human skin fibroblast cells (HFF-1) were also assessed. […] 72 hours post-treatment, cell viability was assessed using the Alamar Blue method (http://www.bio-rad-antibodies.com/measuring-cytotoxicity-proliferation-spectrophotometry-fluorescence-alamarBlue.html). […] Conversion of Alamar Blue was measured with a plate reader (SpectraMax M3; Molecular Devices) by fluorescence (excitation wavelength: 555 nm; emission wavelength: 585 nm; cutoff 570 nm; autogain). […]

U87 (glioblastoma) = test: Cytotoxicity profiling (Alamar Blue), U87; type: cell-based; settings: Homo sapiens, 72-hour treatment
Description: as §3, with “IC50 and Emax values shown in Table 6 were extracted from the raw data plotted in FIG. 8.” left out
as §4

[1] = test system: Escherichia coli ATCC 25922; test: Antibacterial bioassay (MIC), Escherichia coli ATCC 25922; type: cell-based; settings: CLSI
Description: as §1

[2] = test system: U118MG (malignant glioma); test: Cytotoxicity profiling (Alamar Blue), U118MG; type: cell-based; settings: Homo sapiens, U-118-MG, 72-hour treatment
Description: as §3, with “IC50 and Emax values shown in Table 6 were extracted from the raw data plotted in FIG. 8.” left out
as §4

Structure (SMILES): O=C(O)/C=C(\C(=O)O)C(O)P(=O)(O)O (centres unmarked) [pantaphos, 2-(hydroxy(phosphono)methyl)maleate]
- MIC (Salmonella enterica LT2; Mueller-Hinton 2 medium, read-out: MIC, Rich medium): > 200 µM
- MIC (Salmonella enterica LT2; glucose-MOPS minimal medium, read-out: MIC, Minimal medium): > 200 µM
- IC50 (human cell lines): 6 to 37 µM
- onion center rot on co-inoculation with the P. ananatis hvr deletion mutant (chemical complementation) (onion bulbs; co-inoculated with hvr mutant): resulted in onion rot
- onion rot lesions after injection in the absence of bacteria (onion bulbs; surface sterilized onion bulbs, 100 μL filter-sterilized sample, no bacteria): severe onion rot lesions
- Emax (MCF-7 (breast cancer); Homo sapiens, MCF7, MCF-7, Alamar Blue, 72-hour treatment): 90 to 92%
- IC50 (MCF-7 (breast cancer); Homo sapiens, MCF7, MCF-7, Alamar Blue, 72-hour treatment (Table 6)): 2.88 ± 6.28 µM
- sensitivity of the cell line to the compound, in words (MCF-7 (breast cancer); MCF-7): sensitive
- IC50 (HOS (human osteosarcoma)): 37 ± 6.28 µM
- Emax (HOS (human osteosarcoma); read-out: Emax = percentage cell death (converted)): 58%
- Emax (U87 (glioblastoma)): 38 to 48%
- MIC ([1]; ATCC25922, Mueller-Hinton 2 medium, read-out: MIC, Rich medium): > 200 µM
- MIC ([1]; ATCC25922, glucose-MOPS minimal medium, read-out: MIC, Minimal medium): > 200 µM
- Emax [2]: 38 to 45%
